Reference: article PMC4362760, “JAK2^V617F Drives Mcl-1 Expression and Sensitizes Hematologic Cell Lines to Dual Inhibition of JAK2 and Bcl-xL” (PLoS ONE, 2015)

Columns and labels:
K562 cells = assay: Cell viability of K562 cells after siRNA transfection and 72 hr ABT-263; assay type: cell-based
Procedure: Transfection of siRNAs was performed using Lipofectamine RNAiMAX according to the manufacturer’s recommendations. […] Caspase-3 activity was determined using the Caspase-GLO 3/7 Assay (Promega) in parallel with the CellTiter-GLO viability assay (Promega). The data are expressed as Caspase-3/7 activity divided by cell viability. […]
Data are means of duplicate samples and are representative of two independent experiments. (XLS) Click here for additional data file.

[1] = test system: multiple xenograft models; conditions: oral, single agent and in combination with standard of care chemotherapies; cited from earlier work
MAP3K10 = MAP3K10 (Homo sapiens, UniProt Q02779); assay: TR-FRET Kinome MAP3K10; assay type: binding; conditions: MAP3K10 Invitrogen .005(Subs Conc)
Chain of MAP3K10 (Q02779 whole entry): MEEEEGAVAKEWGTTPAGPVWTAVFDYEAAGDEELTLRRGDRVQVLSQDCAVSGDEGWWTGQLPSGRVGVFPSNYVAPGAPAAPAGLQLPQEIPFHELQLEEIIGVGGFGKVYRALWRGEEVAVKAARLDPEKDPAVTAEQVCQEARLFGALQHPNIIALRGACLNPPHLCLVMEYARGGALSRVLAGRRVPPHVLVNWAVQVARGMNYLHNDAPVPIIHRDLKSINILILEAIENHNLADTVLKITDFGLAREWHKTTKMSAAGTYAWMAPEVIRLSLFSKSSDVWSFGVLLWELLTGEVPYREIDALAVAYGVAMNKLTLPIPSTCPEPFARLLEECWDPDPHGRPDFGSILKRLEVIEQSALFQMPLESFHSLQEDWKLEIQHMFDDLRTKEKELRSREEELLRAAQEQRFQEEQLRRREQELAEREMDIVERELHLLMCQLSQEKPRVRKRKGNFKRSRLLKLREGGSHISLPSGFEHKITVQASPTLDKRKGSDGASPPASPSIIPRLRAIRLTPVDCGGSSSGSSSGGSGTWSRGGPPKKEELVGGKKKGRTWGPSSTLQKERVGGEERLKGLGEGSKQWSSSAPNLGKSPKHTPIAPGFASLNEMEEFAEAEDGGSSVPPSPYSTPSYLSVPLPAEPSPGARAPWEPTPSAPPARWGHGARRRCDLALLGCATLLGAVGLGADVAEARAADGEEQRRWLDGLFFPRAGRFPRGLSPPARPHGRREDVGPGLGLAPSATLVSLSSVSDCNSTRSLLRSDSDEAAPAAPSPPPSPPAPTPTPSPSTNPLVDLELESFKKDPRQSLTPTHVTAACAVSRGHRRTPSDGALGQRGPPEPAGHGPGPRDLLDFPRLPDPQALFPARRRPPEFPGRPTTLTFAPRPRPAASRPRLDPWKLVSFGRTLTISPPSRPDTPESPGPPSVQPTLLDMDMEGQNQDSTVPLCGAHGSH
Excerpt: (§1) (XLS) Click here for additional data file.

Bcl-XL mRNA = Bcl-XL mRNA abundance by qPCR in SET-2, UKE-1, HEL, MV4;11, K562 cells; assay type: cell-based; conditions: for BCLxl % Control: treated vs non-treated (100.0); for BCLxl Mean QTY: treated, normalised mRNA quantity by qPCR
Procedure: Fig 1 Regulation of Mcl-1 and Bcl-XL by JAK2 ^V617F. […] Tyrosine phoshorylation of STAT3 and STAT5 was determined by immunoblotting. […] Constitutive tyrosine phosphorylation of STAT3 and STAT5 was determined by immunoblotting. […] Data represent means +/- standard deviation for two independent determinations each performed in triplicate. […] (G) Quantification of the data shown in (F). Data are expressed as the ratio of intensity of Mcl-1/β-actin for each time point. […] Data are means of duplicate samples and are representative of two independent experiments.
Data represent means +/- standard deviation for two independent determinations each performed in triplicate (data in Summary tab). Individual experimental data in exp 051409 and repeat Mcl1 tabs. (XLS) Click here for additional data file.

STK33 = STK33 (Homo sapiens, UniProt Q9BYT3); assay: TR-FRET Kinome STK33; assay type: binding; conditions: STK33 Invitrogen .005(Subs Conc)
Chain of STK33 (Q9BYT3 whole entry): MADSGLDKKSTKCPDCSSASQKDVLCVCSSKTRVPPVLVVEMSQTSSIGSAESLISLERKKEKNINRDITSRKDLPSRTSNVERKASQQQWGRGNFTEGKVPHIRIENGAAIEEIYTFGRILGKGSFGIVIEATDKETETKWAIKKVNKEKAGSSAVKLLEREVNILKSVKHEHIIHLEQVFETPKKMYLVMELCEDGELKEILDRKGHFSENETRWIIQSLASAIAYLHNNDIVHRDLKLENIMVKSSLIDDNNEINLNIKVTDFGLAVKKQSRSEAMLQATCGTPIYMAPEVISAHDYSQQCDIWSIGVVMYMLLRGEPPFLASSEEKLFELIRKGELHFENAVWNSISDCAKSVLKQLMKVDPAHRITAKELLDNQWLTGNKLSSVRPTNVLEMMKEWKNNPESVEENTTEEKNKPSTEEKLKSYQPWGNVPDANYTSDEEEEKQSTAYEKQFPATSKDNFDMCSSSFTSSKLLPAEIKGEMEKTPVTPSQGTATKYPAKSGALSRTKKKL
Excerpt: as §1

IGF1R = IGF1R (Homo sapiens, UniProt P08069); assay: TR-FRET Kinome IGF1R; assay type: binding; conditions: IGF1R Invitrogen .05(Subs Conc)
Chain of IGF1R (P08069 31-1367): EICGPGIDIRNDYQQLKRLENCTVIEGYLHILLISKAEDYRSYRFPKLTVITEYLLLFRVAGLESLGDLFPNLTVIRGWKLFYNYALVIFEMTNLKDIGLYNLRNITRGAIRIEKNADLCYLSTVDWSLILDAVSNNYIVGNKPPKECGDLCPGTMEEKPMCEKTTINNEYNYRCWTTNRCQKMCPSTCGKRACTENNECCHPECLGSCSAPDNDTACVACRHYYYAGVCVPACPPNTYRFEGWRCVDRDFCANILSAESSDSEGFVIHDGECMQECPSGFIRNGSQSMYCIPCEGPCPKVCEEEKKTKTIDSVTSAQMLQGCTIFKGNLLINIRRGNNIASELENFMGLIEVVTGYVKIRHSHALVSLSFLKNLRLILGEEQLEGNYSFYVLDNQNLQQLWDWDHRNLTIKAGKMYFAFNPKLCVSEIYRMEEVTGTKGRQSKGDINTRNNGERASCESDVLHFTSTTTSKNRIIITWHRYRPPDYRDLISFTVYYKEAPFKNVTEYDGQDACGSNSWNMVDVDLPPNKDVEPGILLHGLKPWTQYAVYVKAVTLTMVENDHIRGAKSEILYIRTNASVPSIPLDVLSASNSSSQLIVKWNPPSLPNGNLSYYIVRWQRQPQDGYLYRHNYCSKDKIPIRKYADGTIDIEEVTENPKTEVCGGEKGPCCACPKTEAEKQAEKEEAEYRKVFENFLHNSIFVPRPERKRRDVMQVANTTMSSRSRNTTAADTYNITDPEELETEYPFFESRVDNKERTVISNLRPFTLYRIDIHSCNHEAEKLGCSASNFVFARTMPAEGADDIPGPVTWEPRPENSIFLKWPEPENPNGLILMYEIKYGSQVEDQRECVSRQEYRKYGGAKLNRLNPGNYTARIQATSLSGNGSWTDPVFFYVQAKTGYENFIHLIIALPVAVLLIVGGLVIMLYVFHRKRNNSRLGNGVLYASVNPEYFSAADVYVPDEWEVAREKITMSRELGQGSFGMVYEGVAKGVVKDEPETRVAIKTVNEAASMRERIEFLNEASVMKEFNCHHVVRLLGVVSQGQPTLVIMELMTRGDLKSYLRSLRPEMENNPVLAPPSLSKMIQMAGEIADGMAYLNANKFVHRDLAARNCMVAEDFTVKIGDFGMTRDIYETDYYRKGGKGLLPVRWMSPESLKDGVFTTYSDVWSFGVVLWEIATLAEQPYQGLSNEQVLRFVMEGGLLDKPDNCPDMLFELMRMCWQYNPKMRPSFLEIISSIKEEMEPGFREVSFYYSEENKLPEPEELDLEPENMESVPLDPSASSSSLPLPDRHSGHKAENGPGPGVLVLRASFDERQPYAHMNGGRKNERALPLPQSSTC
Excerpt: as §1

Mcl-1 mRNA = Mcl-1 mRNA abundance by qPCR in SET-2, UKE-1, HEL, MV4;11, K562 cells; assay type: cell-based; conditions: for MCL-1 % Control: treated vs non-treated (100.0); for MCL-1 Mean QTY: treated, normalised mRNA quantity by qPCR
DYRK1B = DYRK1B (Homo sapiens, UniProt Q9Y463); assay: TR-FRET Kinome DYRK1B; assay type: binding; conditions: DYRK1B Invitrogen .05(Subs Conc)
Chain of DYRK1B (Q9Y463 whole entry): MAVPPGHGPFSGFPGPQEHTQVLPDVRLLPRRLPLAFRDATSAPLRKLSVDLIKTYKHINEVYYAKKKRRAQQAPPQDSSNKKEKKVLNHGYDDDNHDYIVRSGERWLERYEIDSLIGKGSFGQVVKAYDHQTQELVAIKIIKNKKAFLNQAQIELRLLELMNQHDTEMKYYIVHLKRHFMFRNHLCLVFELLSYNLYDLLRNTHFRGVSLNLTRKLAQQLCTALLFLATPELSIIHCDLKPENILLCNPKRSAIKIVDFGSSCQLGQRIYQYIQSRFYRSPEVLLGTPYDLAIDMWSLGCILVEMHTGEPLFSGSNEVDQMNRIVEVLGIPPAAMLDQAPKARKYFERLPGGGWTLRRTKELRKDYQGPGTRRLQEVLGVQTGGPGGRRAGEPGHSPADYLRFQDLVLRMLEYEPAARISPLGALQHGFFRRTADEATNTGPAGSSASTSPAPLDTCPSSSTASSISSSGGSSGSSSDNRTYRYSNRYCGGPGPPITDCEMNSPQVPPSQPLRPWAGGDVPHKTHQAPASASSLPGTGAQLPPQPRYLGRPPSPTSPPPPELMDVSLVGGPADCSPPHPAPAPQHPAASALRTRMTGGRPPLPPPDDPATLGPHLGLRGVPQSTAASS
Excerpt: as §1

PKCzeta = PKCzeta (Homo sapiens, UniProt Q05513); assay: TR-FRET Kinome PKCzeta; assay type: binding; conditions: PKCzeta Millipore IVGN Tracer .05(Subs Conc)
Chain of PKCzeta (Q05513 whole entry): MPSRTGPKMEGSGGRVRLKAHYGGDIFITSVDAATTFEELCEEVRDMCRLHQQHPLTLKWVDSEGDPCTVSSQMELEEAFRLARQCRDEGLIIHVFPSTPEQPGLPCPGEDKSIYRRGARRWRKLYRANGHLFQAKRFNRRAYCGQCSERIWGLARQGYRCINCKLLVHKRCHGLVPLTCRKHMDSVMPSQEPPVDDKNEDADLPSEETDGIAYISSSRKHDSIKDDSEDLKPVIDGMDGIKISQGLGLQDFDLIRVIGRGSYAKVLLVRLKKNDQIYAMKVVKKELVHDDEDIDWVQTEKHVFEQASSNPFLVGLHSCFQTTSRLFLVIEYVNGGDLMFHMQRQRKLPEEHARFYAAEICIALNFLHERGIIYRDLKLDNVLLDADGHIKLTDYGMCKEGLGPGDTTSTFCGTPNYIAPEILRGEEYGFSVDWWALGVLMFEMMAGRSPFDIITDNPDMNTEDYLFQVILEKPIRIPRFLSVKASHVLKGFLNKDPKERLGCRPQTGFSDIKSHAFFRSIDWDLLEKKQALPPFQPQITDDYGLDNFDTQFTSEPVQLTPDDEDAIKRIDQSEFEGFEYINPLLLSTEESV
Excerpt: as §1

## CC1(C)CCC(c2ccc(Cl)cc2)=C(CN2CCN(c3ccc(C(=O)NS(=O)(=O)c4ccc(N[C@H](CCN5CCOCC5)CSc5ccccc5)c(S(=O)(=O)C(F)(F)F)c4)cc3)CC2)C1 [ABT-263]
K562 cells; K562, Unt., ABT-263 0.003 uM
  Cell Viability (% Inhibiton): 0%
K562 cells; K562, Unt., ABT-263 0.01 uM
  Cell Viability (% Inhibiton): 0%
K562 cells; K562, Unt., ABT-263 0.03 uM
  Cell Viability (% Inhibiton): 0%
K562 cells; K562, Unt., ABT-263 0.1 uM
  Cell Viability (% Inhibiton): 0%
K562 cells; K562, Unt., ABT-263 0.3 uM
  Cell Viability (% Inhibiton): 0%
K562 cells; K562, Unt., ABT-263 1 uM
  Cell Viability (% Inhibiton): 5%
K562 cells; K562, siMcl1-1, ABT-263 0.003 uM
  Cell Viability (% Inhibiton): 0%
K562 cells; K562, siMcl1-1, ABT-263 0.01 uM
  Cell Viability (% Inhibiton): 0%
K562 cells; K562, siMcl1-1, ABT-263 0.03 uM
  Cell Viability (% Inhibiton): 0%
K562 cells; K562, siMcl1-1, ABT-263 0.1 uM
  Cell Viability (% Inhibiton): 0%
K562 cells; K562, siMcl1-1, ABT-263 0.3 uM
  Cell Viability (% Inhibiton): 0%
K562 cells; K562, siMcl1-1, ABT-263 1 uM
  Cell Viability (% Inhibiton): 0%
K562 cells; K562, siMcl1-2, ABT-263 0.003 uM
  Cell Viability (% Inhibiton): 0%
K562 cells; K562, siMcl1-2, ABT-263 0.01 uM
  Cell Viability (% Inhibiton): 0%
K562 cells; K562, siMcl1-2, ABT-263 0.03 uM
  Cell Viability (% Inhibiton): 0%
K562 cells; K562, siMcl1-2, ABT-263 0.1 uM
  Cell Viability (% Inhibiton): 2%
K562 cells; K562, siMcl1-2, ABT-263 0.3 uM
  Cell Viability (% Inhibiton): 11%
K562 cells; K562, siMcl1-2, ABT-263 1 uM
  Cell Viability (% Inhibiton): 21%
K562 cells; K562, siMcl1-3, ABT-263 0.003 uM
  Cell Viability (% Inhibiton): 0%
K562 cells; K562, siMcl1-3, ABT-263 0.01 uM
  Cell Viability (% Inhibiton): 0%
K562 cells; K562, siMcl1-3, ABT-263 0.03 uM
  Cell Viability (% Inhibiton): 0%
K562 cells; K562, siMcl1-3, ABT-263 0.1 uM
  Cell Viability (% Inhibiton): 0%
K562 cells; K562, siMcl1-3, ABT-263 0.3 uM
  Cell Viability (% Inhibiton): 13%
K562 cells; K562, siMcl1-3, ABT-263 1 uM
  Cell Viability (% Inhibiton): 32%
K562 cells; K562, siMcl1-4, ABT-263 0.003 uM
  Cell Viability (% Inhibiton): 0%
K562 cells; K562, siMcl1-4, ABT-263 0.01 uM
  Cell Viability (% Inhibiton): 3%
K562 cells; K562, siMcl1-4, ABT-263 0.03 uM
  Cell Viability (% Inhibiton): 22%
K562 cells; K562, siMcl1-4, ABT-263 0.1 uM
  Cell Viability (% Inhibiton): 60%
K562 cells; K562, siMcl1-4, ABT-263 0.3 uM
  Cell Viability (% Inhibiton): 75%
K562 cells; K562, siMcl1-4, ABT-263 1 uM
  Cell Viability (% Inhibiton): 80%
K562 cells; K562, siNT-1, ABT-263 0.003 uM
  Cell Viability (% Inhibiton): 0%
K562 cells; K562, siNT-1, ABT-263 0.01 uM
  Cell Viability (% Inhibiton): 0%
K562 cells; K562, siNT-1, ABT-263 0.03 uM
  Cell Viability (% Inhibiton): 0%
K562 cells; K562, siNT-1, ABT-263 0.1 uM
  Cell Viability (% Inhibiton): 0%
K562 cells; K562, siNT-1, ABT-263 0.3 uM
  Cell Viability (% Inhibiton): 2%
K562 cells; K562, siNT-1, ABT-263 1 uM
  Cell Viability (% Inhibiton): 10%
[1]
  activity in xenograft models: pronounced oral activity

## CC(C)(C)c1nc2c3cc[nH]c(=O)c3c3cc(F)ccc3c2[nH]1 [JAKi-I, JAK inhibitor I]
MAP3K10
  Ki: > 3.06 µM
Bcl-XL mRNA; HEL cells
  BCLxl % Control: 30.4093%
  BCLxl Mean QTY: 76.1
Bcl-XL mRNA; K562 cells
  BCLxl % Control: 93.9154%
  BCLxl Mean QTY: 98.4
Bcl-XL mRNA; MV411 cells
  BCLxl % Control: 101.412%
  BCLxl Mean QTY: 30.8
Bcl-XL mRNA; SET2 cells
  BCLxl % Control: 19.4966%
  BCLxl Mean QTY: 62.5
Bcl-XL mRNA; following JAK inhibition, 6 hr
  Bcl-XL transcript level: sharply declined
STK33
  Ki: 0.0302 µM
IGF1R
  Ki: > 2.65 µM
Mcl-1 mRNA; HEL cells
  MCL-1 % Control: 59.2674%
  MCL-1 Mean QTY: 25.0
Mcl-1 mRNA; K562 cells
  MCL-1 % Control: 89.9219%
  MCL-1 Mean QTY: 50.9
Mcl-1 mRNA; MV411 cells
  MCL-1 Mean QTY: 30.6
Mcl-1 mRNA; SET2 cells
  MCL-1 % Control: 37.995%
  MCL-1 Mean QTY: 47.0
Mcl-1 mRNA; following JAK inhibition, 6 hr
  Mcl-1 transcript level: sharply declined
DYRK1B
  Ki: > 2.65 µM
PKCzeta
  Ki: > 5.24 µM
